{"source": "patent US12522596B2", "about": "“Compounds as GLP-1R agonists” (Terns Pharmaceuticals, Inc., priority 2021, dated 2026)", "assay": "Pharmacokinetics in hGLP-1R mice after oral dosing", "assay_type": "in vivo, male C57BL/6J hGLP-1R mouse", "procedure": "IPGTT (120 min)—PK bleeding: 40 μL blood samples (all treatment groups) were collected from mice under the jaw at IPGTT-120 min after blood glucose measurement into pre-chilled EDTA-2K tubes. Blood samples were processed for plasma by centrifugation at 4° C., 3200×g for 10 min. 15 μL plasma was stored at −80° C. for PK analysis. From 4 mice in Group 7 of the PD cohort, whole brain was collected after blood is harvested at 120 min post dose, rinsed with saline and patted dry and placed into a pre-weighed tube and stored at −80° C. collected for PK analysis.\nPK bleeding group design is described in Table 9.\nPK bleeding: 30 μL blood was collected at 0.25, 0.5, 1, 2, 4, and 8 h. Blood samples were processed for plasma by centrifugation at 4° C., 3200×g for 10 min. 12 μL plasma was collected at −80° C. for further analysis. From 3 mice in Group 7 of the PK cohort, whole brain was collected after blood is harvested at 8 hr post dose, rinsed with saline and patted dry and placed into a pre-weighed tube and stored at −80° C. collected for PK analysis.\nFor plasma: An aliquot of 3 μL sample was protein precipitated with 60 μL internal standard (100 ng/mL Labetalol & 100 ng/ml Dexamethasone & 100 ng/ml Tolbutamide & 100 ng/mL Verapamil & 100 ng/ml Glyburide & 100 ng/ml Celecoxib in ACN) and then the mixture was vortex-mixed for 10 min at 800 rpm and centrifuged for 15 min at 3220×g, 4° C.\nThe linear/log trapezoidal rule was applied in obtaining the PK parameters. Individual plasma concentration values that were below the lower limit of quantitation (LOQ) were excluded from the PK parameter calculation. The nominal dose levels and nominal sampling times were used in the calculation of all pharmacokinetic parameters.", "key": {"[1]": {"conditions": "hGLP-1R mouse plasma, PO 0.3 mg/kg, individual mice, 0.3 mg/kg"}, "[2]": {"conditions": "hGLP-1R mouse plasma, PO 0.3 mg/kg, mean"}, "[3]": {"conditions": "hGLP-1R mouse plasma, PO 1 mg/kg, individual mice, 1 mg/kg"}, "[4]": {"conditions": "hGLP-1R mouse plasma, PO 1 mg/kg, mean"}}, "note": "“And” between values parts separate entries of the source, which are not always exact repeats. Equal entries are not always repeated. Where two headings read alike, the source gives them in different places. Marks after values point to notes of the source that are not given here."}
{"smiles": "N#Cc1ccc(COc2cccc(C3CCN(Cc4nc5ccc(C(=O)O)cc5n4C[C@@H]4CCO4)CC3)n2)c(F)c1", "note": "[Reference Compound A, reference compound]", "values": [{"measurement": "increase of exposure with dose (dose proportionality)", "setting": "hGLP-1R mice, PO, Reference Compound A 0.3-1 mg/kg, Compound 2 0.3-3 mg/kg", "value": "approximately dose proportional manner"}, {"measurement": "Concentration", "setting": "hGLP-1R mouse plasma collected at 120 min (IPGTT cohort), PO 0.3 mg/kg, individual animals, 0.3 mg/kg", "value": "8.61 ng/mL and 8.10 ng/mL and 5.55 ng/mL and 7.19 ng/mL and 6.60 ng/mL and 6.14 ng/mL"}, {"measurement": "Concentration", "setting": "hGLP-1R mouse plasma collected at 120 min (IPGTT cohort), PO 1 mg/kg, individual animals, 1 mg/kg", "value": "29.7 ng/mL and 31.0 ng/mL and 17.9 ng/mL and 14.2 ng/mL and 15.9 ng/mL and 14.9 ng/mL and 26.5 ng/mL"}, {"measurement": "Concentration", "setting": "hGLP-1R mouse plasma, PO 0.3 mg/kg, 0.25 h, individual animals, 0.3 mg/kg", "value": "11.2 ng/mL and 16.7 ng/mL and 46.8 ng/mL"}, {"measurement": "Concentration", "setting": "hGLP-1R mouse plasma, PO 0.3 mg/kg, 0.5 h, individual animals, 0.3 mg/kg", "value": "17.6 ng/mL and 14.6 ng/mL"}, {"measurement": "Concentration", "setting": "hGLP-1R mouse plasma, PO 0.3 mg/kg, 1 h, individual animals, 0.3 mg/kg", "value": "13.4 ng/mL and 23.5 ng/mL and 11.1 ng/mL"}, {"measurement": "Concentration", "setting": "hGLP-1R mouse plasma, PO 0.3 mg/kg, 2 h, individual animals, 0.3 mg/kg", "value": "2.43 ng/mL and 4.91 ng/mL and 2.76 ng/mL"}, {"measurement": "Concentration", "setting": "hGLP-1R mouse plasma, PO 0.3 mg/kg, 4 h, individual animals, 0.3 mg/kg", "value": "BQL"}, {"measurement": "Concentration", "setting": "hGLP-1R mouse plasma, PO 0.3 mg/kg, 8 h, individual animals", "value": "BQL"}, {"measurement": "Tlast", "setting": "hGLP-1R mouse plasma, PO 0.3 mg/kg, individual mice", "value": 2.00, "unit": "h"}, {"measurement": "AUC0-inf", "setting": "[1]", "value": "22.9 ng·h/mL and 40.5 ng·h/mL and 19.4 ng·h/mL"}, {"measurement": "AUC0-last", "setting": "[1]", "value": "21.2 ng·h/mL and 35.4 ng·h/mL and 17.0 ng·h/mL"}, {"measurement": "AUCExtra", "setting": "[1]", "value": "7.39% and 12.7% and 12.4%"}, {"measurement": "AUMCExtra", "setting": "[1]", "value": "21.1% and 35.8% and 32.0%"}, {"measurement": "Cmax", "setting": "[1]", "value": "19.6 ng/mL and 46.8 ng/mL and 14.6 ng/mL"}, {"measurement": "MRT0-inf", "setting": "[1]", "value": "1.08 h and 1.11 h"}, {"measurement": "MRT0-last", "setting": "[1]", "value": "0.797 h and 0.861 h"}, {"measurement": "T1/2", "setting": "[1]", "value": "0.727* h and 0.602 h"}, {"measurement": "Tmax", "setting": "[1]", "value": 0.250, "unit": "h"}, {"measurement": "AUCExtra", "setting": "[2]", "value": 10.8, "unit": "%"}, {"measurement": "AUMCExtra", "setting": "[2]", "value": 29.6, "unit": "%"}, {"measurement": "Tlast", "setting": "[2]", "value": 2.00, "unit": "h"}, {"measurement": "Concentration", "setting": "hGLP-1R mouse plasma, PO 1 mg/kg, 0.25 h, individual animals, 1 mg/kg", "value": "31.9 ng/mL and 31.8 ng/mL"}, {"measurement": "Concentration", "setting": "hGLP-1R mouse plasma, PO 1 mg/kg, 0.5 h, individual animals, 1 mg/kg", "value": "40.2 ng/mL and 41.2 ng/mL"}, {"measurement": "Concentration", "setting": "hGLP-1R mouse plasma, PO 1 mg/kg, 1 h, individual animals, 1 mg/kg", "value": "48.7 ng/mL and 23.7 ng/mL and 46.0 ng/mL"}, {"measurement": "Concentration", "setting": "hGLP-1R mouse plasma, PO 1 mg/kg, 2 h, individual animals, 1 mg/kg", "value": "22.4 ng/mL and 5.72 ng/mL and 15.4 ng/mL"}, {"measurement": "Concentration", "setting": "hGLP-1R mouse plasma, PO 1 mg/kg, 4 h, individual animals, 1 mg/kg", "value": "BQL and 3.21 ng/mL"}, {"measurement": "Concentration", "setting": "hGLP-1R mouse plasma, PO 1 mg/kg, 8 h, individual animals", "value": "BQL"}, {"measurement": "AUC0-inf", "setting": "[3]", "value": "86.4 ng·h/mL and 89.9 ng·h/mL"}, {"measurement": "AUC0-last", "setting": "[3]", "value": "68.7 ng·h/mL and 86.7 ng·h/mL"}, {"measurement": "AUCExtra", "setting": "[3]", "value": "3.91% and 20.5% and 3.54%"}, {"measurement": "AUMCExtra", "setting": "[3]", "value": "13.8% and 58.3% and 18.2%"}, {"measurement": "Cmax", "setting": "[3]", "value": "40.2 ng/mL and 46.0 ng/mL"}, {"measurement": "MRT0-inf", "setting": "[3]", "value": "1.45 h and 4.55 h and 2.05 h"}, {"measurement": "MRT0-last", "setting": "[3]", "value": "2.39 h and 1.74 h"}, {"measurement": "T1/2", "setting": "[3]", "value": "0.791 h and 3.42* h and 1.77* h"}, {"measurement": "Tlast", "setting": "[3]", "value": "4.00 h and 8.00 h (2×)"}, {"measurement": "Tmax", "setting": "[3]", "value": 1.00, "unit": "h"}, {"measurement": "AUCExtra", "setting": "[4]", "value": 9.32, "unit": "%"}, {"measurement": "AUMCExtra", "setting": "[4]", "value": 30.1, "unit": "%"}, {"measurement": "AUC(0-t)", "setting": "male, C57BL/6J hGLP-1R, mouse, plasma, po, 0.3 mg/kg, hGLP-1R mice, total, PO 0.3 mg/kg, read-out: AUClast Mean", "value": 24.5, "unit": "ng·h/mL"}, {"measurement": "Cmax", "setting": "male, C57BL/6J hGLP-1R, mouse, plasma, po, 0.3 mg/kg, hGLP-1R mice, total, PO 0.3 mg/kg, read-out: Cmax Mean", "value": 27, "unit": "ng/mL"}, {"measurement": "half-life", "setting": "male, C57BL/6J hGLP-1R, mouse, plasma, po, 0.3 mg/kg, hGLP-1R mice, total, PO 0.3 mg/kg, read-out: T1/2 (converted)", "value": 0.604, "unit": "h"}, {"measurement": "Tmax", "setting": "male, C57BL/6J hGLP-1R, mouse, plasma, po, 0.3 mg/kg, hGLP-1R mice, total, PO 0.3 mg/kg, read-out: Tmax Median", "value": 0.5, "unit": "h"}, {"measurement": "concentration at 120 min", "setting": "male, C57BL/6J hGLP-1R, mouse, plasma, po, 0.3 mg/kg, hGLP-1R mouse plasma collected at 120 min (IPGTT cohort), PO 0.3 mg/kg, individual animals, read-out: Concentration", "value": 7.91, "unit": "ng/mL"}]}
